MHC, MIC and Activity data for 10 compounds are collected here from ChEMBL document CHEMBL6083262, “Stereorandomized Oncocins with Preserved Ribosome Binding and Antibacterial Activity” (J Med Chem, 2024).

The source made the active and inactive calls. The calls are words filed in the database; no cut-off is given here. Non-standard residues stand in square brackets, D forms with d. Residues, ends and D or L forms follow the SMILES beside them. ξ: configuration not given here. ξY = NC(Cc1ccc(O)cc1)C(=O)O; ξR = N=C(N)NCCCC(N)C(=O)O; ξN = NC(=O)CC(N)C(=O)O; Nleu = CC(C)CNCC(=O)O; ξI = CCC(C)C(N)C(=O)O; Nlys = NCCCCNCC(=O)O; ξP = O=C(O)C1CCCN1

As usually defined, the MIC is the lowest concentration found to suppress growth. The low end stands for greater potency, the high end for weaker potency.

A short description of series [1]: Hemolytic activity in human RBC incubated for 4 hrs. The following applies: erythrocyte. Type of series: toxicity, cell-based.
The test system of another series is Pseudomonas aeruginosa. Kind of series: Antimicrobial activity against Pseudomonas aeruginosa PAO1 incubated for 16 to 20 hrs in full muller hinton medium by broth microdilution method. As to conditions: time 16-20 hrs. Type of series: functional. Background: Broth dilution looks for growth in wells or tubes with falling amounts of substance.
In series [2] the test system is Staphylococcus aureus. Kind of series: Antimicrobial activity against methicillin-resistant Staphylococcus aureus COL incubated for 16 to 20 hrs in full muller hinton medium by broth microdilution method. It counts as functional. As to conditions: time 16-20 hrs.
The subject of another series is rRNA. Kind of series: Binding affinity to [gamma32 P-ATP] labeled Escherichia coli MG1655 23S ribosomal RNA (5-CCCTTGGGACCTACTTC-3') at U2506 position assessed as increase in band intensity at 1 uM incubated for 2.5 hrs in full muller hinton medium by CMCT based gel electrophoresis. It counts as nucleic-acid assay.
Series [3] deals with Staphylococcus aureus. Kind of series: Antimicrobial activity against methicillin-resistant Staphylococcus aureus COL incubated for 16 to 20 hrs in 12.5 % muller hinton medium by broth microdilution method. Type of series: functional. As to conditions: time 16-20 hrs.
The test system of another series is Acinetobacter baumannii. Briefly: Antimicrobial activity against Acinetobacter baumannii ATCC 19606 incubated for 16 to 20 hrs in full muller hinton medium by broth microdilution method. It counts as functional. As to conditions: time 16-20 hrs.

For the compound `CC(C)C[C@H](NC(=O)CN(CC(C)C)C(=O)[C@H](CC(C)C)NC(=O)CN(CCCCN)C(=O)[C@H](CC(C)C)NC(=O)CN(CC(C)C)C(=O)[C@H](CCCCN)NC(=O)CN(CC(C)C)C(=O)[C@H](CC(C)C)NC(=O)CN(CCCCN)C(=O)[C@@H](N)CCCCN)C(N)=O` (H-K[Nlys]L[Nleu]K[Nleu]L[Nlys]L[Nleu]L-NH2), the MHC in series [1] is above 2000 µg/mL.

Regarding `CC[C@H](C)[C@H](NC(=O)[C@H](CCCNC(=N)N)NC(=O)[C@H](CCCNC(=N)N)NC(=O)[C@@H]1CCCN1C(=O)[C@H]1CCCN1C(=O)[C@H](CCCNC(=N)N)NC(=O)[C@@H]1CCCN1C(=O)[C@H](CCCNC(=N)N)NC(=O)[C@@H]1CCCN1C(=O)[C@H](CC(C)C)NC(=O)[C@H](Cc1ccc(O)cc1)NC(=O)[C@@H]1CCCN1C(=O)[C@@H]1CCCN1C(=O)[C@H](CCCCN)NC(=O)[C@H](CC(=O)O)NC(=O)[C@@H](N)C(C)C)C(=O)N[C@@H](Cc1ccc(O)cc1)C(=O)N[C@@H](CC(N)=O)C(=O)N[C@@H](CCCNC(=N)N)C(N)=O` (H-VDKPPYLPRPR[dP]PRRIYNR-NH2), the minimal inhibitory concentration (MIC) in the series with Pseudomonas aeruginosa and in the series with Staphylococcus aureus [2] was above 64 µg/mL throughout. In series [1], this compound registered an MHC above 1000 µg/mL.

Take `CC[C@@H](C)[C@@H](NC(=O)[C@@H](CCCNC(=N)N)NC(=O)[C@@H](CCCNC(=N)N)NC(=O)[C@H]1CCCN1C(=O)[C@H]1CCCN1C(=O)[C@H](CCCNC(=N)N)NC(=O)[C@@H]1CCCN1C(=O)[C@H](CCCNC(=N)N)NC(=O)[C@@H]1CCCN1C(=O)[C@H](CC(C)C)NC(=O)[C@H](Cc1ccc(O)cc1)NC(=O)[C@@H]1CCCN1C(=O)[C@@H]1CCCN1C(=O)[C@H](CCCCN)NC(=O)[C@H](CC(=O)O)NC(=O)[C@@H](N)C(C)C)C(=O)N[C@H](Cc1ccc(O)cc1)C(=O)N[C@H](CC(N)=O)C(=O)N[C@H](CCCNC(=N)N)C(N)=O` (H-VDKPPYLPRPR[dP][dP][dR][dR][dI][dY][dN][dR]-NH2): the MIC against Pseudomonas aeruginosa and against Staphylococcus aureus [2] was above 64 µg/mL in each case. The same compound showed an MHC in series [1] above 1000 µg/mL. Moreover, in the series on rRNA, the outcome was Active.

As for `CC[C@H](C)[C@H](NC(=O)[C@H](CCCNC(=N)N)NC(=O)[C@H](CCCNC(=N)N)NC(=O)[C@@H]1CCCN1C(=O)[C@@H]1CCCN1C(=O)[C@@H](CCCNC(=N)N)NC(=O)[C@@H]1CCCN1C(=O)[C@H](CCCNC(=N)N)NC(=O)[C@@H]1CCCN1C(=O)[C@H](CC(C)C)NC(=O)[C@H](Cc1ccc(O)cc1)NC(=O)[C@@H]1CCCN1C(=O)[C@@H]1CCCN1C(=O)[C@H](CCCCN)NC(=O)[C@H](CC(=O)O)NC(=O)[C@@H](N)C(C)C)C(=O)N[C@@H](Cc1ccc(O)cc1)C(=O)N[C@@H](CC(N)=O)C(=O)N[C@@H](CCCNC(=N)N)C(N)=O` (H-VDKPPYLPRP[dR]PPRRIYNR-NH2), the minimum inhibitory concentration (MIC) with Pseudomonas aeruginosa, against Staphylococcus aureus [2] and in the series on Staphylococcus aureus [3] was above 64 µg/mL each time. This compound yielded an MHC in series [1] above 1000 µg/mL.

Take `CC[C@@H](C)[C@@H](NC(=O)[C@@H](CCCNC(=N)N)NC(=O)[C@@H](CCCNC(=N)N)NC(=O)[C@H]1CCCN1C(=O)[C@H]1CCCN1C(=O)[C@@H](CCCNC(=N)N)NC(=O)[C@@H]1CCCN1C(=O)[C@H](CCCNC(=N)N)NC(=O)[C@@H]1CCCN1C(=O)[C@H](CC(C)C)NC(=O)[C@H](Cc1ccc(O)cc1)NC(=O)[C@@H]1CCCN1C(=O)[C@@H]1CCCN1C(=O)[C@H](CCCCN)NC(=O)[C@H](CC(=O)O)NC(=O)[C@@H](N)C(C)C)C(=O)N[C@H](Cc1ccc(O)cc1)C(=O)N[C@H](CC(N)=O)C(=O)N[C@H](CCCNC(=N)N)C(N)=O` (H-VDKPPYLPRP[dR][dP][dP][dR][dR][dI][dY][dN][dR]-NH2): the MIC against Staphylococcus aureus [2] and in the series with Staphylococcus aureus [3] was above 64 µg/mL throughout. For the same compound, the MHC in series [1] is above 1000 µg/mL. Further, the outcome in the series with rRNA was Active.

For `CC[C@H](C)[C@H](NC(=O)[C@H](CCCNC(=N)N)NC(=O)[C@H](CCCNC(=N)N)NC(=O)[C@@H]1CCCN1C(=O)[C@@H]1CCCN1C(=O)[C@H](CCCNC(=N)N)NC(=O)[C@H]1CCCN1C(=O)[C@H](CCCNC(=N)N)NC(=O)[C@@H]1CCCN1C(=O)[C@H](CC(C)C)NC(=O)[C@H](Cc1ccc(O)cc1)NC(=O)[C@@H]1CCCN1C(=O)[C@@H]1CCCN1C(=O)[C@H](CCCCN)NC(=O)[C@H](CC(=O)O)NC(=O)[C@@H](N)C(C)C)C(=O)N[C@@H](Cc1ccc(O)cc1)C(=O)N[C@@H](CC(N)=O)C(=O)N[C@@H](CCCNC(=N)N)C(N)=O` (H-VDKPPYLPR[dP]RPPRRIYNR-NH2), the MIC against Pseudomonas aeruginosa, against Staphylococcus aureus [2] and in the series on Staphylococcus aureus [3] was above 64 µg/mL each time. This compound returned an MHC in series [1] above 1000 µg/mL.

`CCC(C)C(NC(=O)C(CCCNC(=N)N)NC(=O)C(CCCNC(=N)N)NC(=O)C1CCCN1C(=O)C1CCCN1C(=O)C(CCCNC(=N)N)NC(=O)C1CCCN1C(=O)[C@H](CCCNC(=N)N)NC(=O)[C@@H]1CCCN1C(=O)[C@H](CC(C)C)NC(=O)[C@H](Cc1ccc(O)cc1)NC(=O)[C@@H]1CCCN1C(=O)[C@@H]1CCCN1C(=O)[C@H](CCCCN)NC(=O)[C@H](CC(=O)O)NC(=O)[C@@H](N)C(C)C)C(=O)NC(Cc1ccc(O)cc1)C(=O)NC(CC(N)=O)C(=O)NC(CCCNC(=N)N)C(N)=O` (some centres not stated) (H-VDKPPYLPR[ξP][ξR][ξP][ξP][ξR][ξR][ξI][ξY][ξN][ξR]-NH2) showed an MIC in the series with Staphylococcus aureus [2] above 64 µg/mL. For the same compound, the MHC in series [1] is above 1000 µg/mL.

Take `CCC(C)C(NC(=O)C(CCCNC(=N)N)NC(=O)C(CCCNC(=N)N)NC(=O)C1CCCN1C(=O)C1CCCN1C(=O)C(CCCNC(=N)N)NC(=O)C1CCCN1C(=O)C(CCCNC(=N)N)NC(=O)[C@@H]1CCCN1C(=O)[C@H](CC(C)C)NC(=O)[C@H](Cc1ccc(O)cc1)NC(=O)[C@@H]1CCCN1C(=O)[C@@H]1CCCN1C(=O)[C@H](CCCCN)NC(=O)[C@H](CC(=O)O)NC(=O)[C@@H](N)C(C)C)C(=O)NC(Cc1ccc(O)cc1)C(=O)NC(CC(N)=O)C(=O)NC(CCCNC(=N)N)C(N)=O` (some centres not stated) (H-VDKPPYLP[ξR][ξP][ξR][ξP][ξP][ξR][ξR][ξI][ξY][ξN][ξR]-NH2): the MIC in the series with Pseudomonas aeruginosa and against Staphylococcus aureus [2] was above 64 µg/mL in each case. Also, the MHC in series [1] was above 1000 µg/mL.

With `CCC(C)C(NC(=O)C(CCCNC(=N)N)NC(=O)C(CCCNC(=N)N)NC(=O)C1CCCN1C(=O)C1CCCN1C(=O)C(CCCNC(=N)N)NC(=O)C1CCCN1C(=O)C(CCCNC(=N)N)NC(=O)C1CCCN1C(=O)[C@H](CC(C)C)NC(=O)[C@H](Cc1ccc(O)cc1)NC(=O)[C@@H]1CCCN1C(=O)[C@@H]1CCCN1C(=O)[C@H](CCCCN)NC(=O)[C@H](CC(=O)O)NC(=O)[C@@H](N)C(C)C)C(=O)NC(Cc1ccc(O)cc1)C(=O)NC(CC(N)=O)C(=O)NC(CCCNC(=N)N)C(N)=O` (some centres not stated) (H-VDKPPYL[ξP][ξR][ξP][ξR][ξP][ξP][ξR][ξR][ξI][ξY][ξN][ξR]-NH2), the MIC against Pseudomonas aeruginosa and in the series on Staphylococcus aureus [2] was above 64 µg/mL each time. The same compound registered an MHC in series [1] above 1000 µg/mL.

For `CC[C@H](C)[C@H](NC(=O)[C@H](CCCNC(=N)N)NC(=O)[C@H](CCCNC(=N)N)NC(=O)[C@@H]1CCCN1C(=O)[C@@H]1CCCN1C(=O)[C@H](CCCNC(=N)N)NC(=O)[C@@H]1CCCN1C(=O)[C@H](CCCNC(=N)N)NC(=O)[C@@H]1CCCN1C(=O)[C@H](CC(C)C)NC(=O)[C@@H](Cc1ccc(O)cc1)NC(=O)[C@@H]1CCCN1C(=O)[C@@H]1CCCN1C(=O)[C@H](CCCCN)NC(=O)[C@H](CC(=O)O)NC(=O)[C@@H](N)C(C)C)C(=O)N[C@@H](Cc1ccc(O)cc1)C(=O)N[C@@H](CC(N)=O)C(=O)N[C@@H](CCCNC(=N)N)C(N)=O` (H-VDKPP[dY]LPRPRPPRRIYNR-NH2), the MIC against Pseudomonas aeruginosa, in the series with Staphylococcus aureus [2] and against Acinetobacter baumannii was above 64 µg/mL each time. The compound further showed an MHC in series [1] above 1000 µg/mL.
